The values that follow come from paper PMC12703741, “Light-Activated Metal-Dependent Protein Degradation: A Heterobifunctional Ruthenium(II) Photosensitizer Targeting New Delhi Metallo-β-lactamase 1” (Journal of the American Chemical Society, 2025).

Values joined by “and” are separate entries in the source; they are usually repeats but may differ in a detail not shown here. Equal entries are not always repeated. “Also recorded” adds a separate entry of the source. Where two headings read alike, the source gives them in different places.

The conditions of data set [1]: archetypal comparison complex; cited from earlier work.
On the set-up of data set [2]: method as in earlier work. Conditions: reference for 1O2 sensitization; ref 4 (SI), Tanielian et al., 1996; cited from earlier work.
Data set [3] has as its target T1, NDM-1 (Klebsiella pneumoniae, UniProt C7C422). Conditions: read-out: Km(Nitrocefin); NDM-1 2 nM, 25 °C. The text has this:
(4 pictures or pasted objects on this page, not shown here)

In data set [4] the target is T1, NDM-1. To be noted: read-out: Km(Nitrocefin); previously reported; ref 5 (SI); cited from earlier work.
For data set [5], the target named is T1, NDM-1. It is filed as biochemical. Conditions: mixture of NDM-1 and BSA, 0-1000 μM. The protocol:
1.8 Protein degradation via SDS-PAGE […]
were made at 10 mM in DMSO and then diluted to the appropriate concentration (1 mM – 10 µM) in 50 mM HEPES pH 7.5. The enzyme stocks (10 µM) were made up in 50 mM HEPES pH 7.5. The compound and enzyme stocks were mixed 1:1 and then pre -incubated for 10 min […]
‘light’ conditions the samples were transferred to a 96 well plate to provide irradiation. For a […]
(208 s, 96 mW cm-2). For a dose of 60 J cm-2 the plate was irradiated immediately (624 s, 96 […]
An aliquot of each sample was mixed with SDS-sample buffer (NuPAGE® LDS Sample buffer 4x) and heated to 95°C for 3 min. The samples were loaded on to the gel (NuPAGE® 4-12% Bis-tris gel) and run at 200V/125 mA for 30 min (1 gel per Gel box) or 60 min (2 gels per Gel box). SDS-PAGE gels were imaged using a Cytiva Amersham ImageQuant™ 800.
Densitometry of gel bands was measured and processed using Fiji (ImageJ).
1.8.3 BSA+NDM-1 selectivity experiment […]
nm, 20 J cm-2). Lane 1: Ladder; Lane 2: NDM-1 – no compound control (dark); Lane 3: BSA – no compound control (dark); Lane 4: NDM-1 + BSA - no compound control (dark); Lane 5: NDM-1 + BSA + 1 eq. compound (dark); Lane 6: NDM-1 + BSA + 10 eq. compound (dark); Lane 7: NDM-1 + BSA + 100 eq. compound (dark); Lane 8: NDM-1 + BSA - no compound control (light); Lane 9: NDM-1 + BSA + 1 eq. compound (light); Lane 10: NDM-1 + BSA + 10 eq. compound (light); Lane 11: NDM-1 + BSA + 100 eq. compound (light). […]
the dark (left) and under light irradiation (450 nm, 20 J cm-2).

The target in data set [6] is T1, NDM-1. The protocol:
In addition, intact mass spectrometry was performed on the samples prepared for SDS-PAGE.

Data set [7] deals with T1, NDM-1. The source holds these as a separate data set.
Description: 1.4.1 Differential Scanning Fluorimetry (DSF)
DSF was performed using the Applied Biosystems QuantStudio 5 thermal cycler (Thermo
Fisher Scientific). Results were analysed and Tm determined with the Applied Biosystems
Protein Thermal Shift Software v1.4 and Tm values determined by the software. DSF was
conducted in sealed MicroAmp Optical 384-Well Reaction Plates (Thermo Fisher Scientific).
at a temperature ramp rate of 0.03 °C/s. For compound-protein interaction studies, a final
containing 5X SYPRO Orange (Thermo Fisher Scientific), 50 mM HEPES and 5%(v/v)
DMSO-d6. The final reaction volume was 20 µL per well. All DMSO compound stocks used
for DSF experiments were freshly prepared from solid stocks. All DSF measurements were
carried out in triplicate and the Tm reported is the mean value and the error is the standard
deviation. For all compounds tested, a no protein control run was included to see potential
changes in fluorescence resulting from a compound-dye interaction.
In another data set the target is NDM-1 in E. coli NDM-1 (Klebsiella pneumoniae, UniProt C7C422). To be noted: E. coli NDM-1, 450 nm, 60 J cm^-2.
Chain of NDM-1 in E. coli NDM-1 (C7C422 29-270 limits assumed): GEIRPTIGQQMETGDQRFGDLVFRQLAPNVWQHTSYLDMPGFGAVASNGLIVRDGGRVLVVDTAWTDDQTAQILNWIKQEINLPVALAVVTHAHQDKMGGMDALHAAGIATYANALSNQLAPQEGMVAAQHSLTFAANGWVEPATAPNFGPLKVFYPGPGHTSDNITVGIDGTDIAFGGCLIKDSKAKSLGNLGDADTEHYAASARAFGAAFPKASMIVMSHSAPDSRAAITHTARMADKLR
The test system of a further data set is E. coli empty. To be noted: dark and light samples equivalent.
The target of another data set is HDAC1 (Homo sapiens, UniProt Q13547). The experiment in a line: HDAC1 deacetylation assay (H3K9Ac, mass spectrometry). To be noted: 100 µM compound, 3 hours, 37°C.
Chain of HDAC1 (Q13547 whole entry, species assumed): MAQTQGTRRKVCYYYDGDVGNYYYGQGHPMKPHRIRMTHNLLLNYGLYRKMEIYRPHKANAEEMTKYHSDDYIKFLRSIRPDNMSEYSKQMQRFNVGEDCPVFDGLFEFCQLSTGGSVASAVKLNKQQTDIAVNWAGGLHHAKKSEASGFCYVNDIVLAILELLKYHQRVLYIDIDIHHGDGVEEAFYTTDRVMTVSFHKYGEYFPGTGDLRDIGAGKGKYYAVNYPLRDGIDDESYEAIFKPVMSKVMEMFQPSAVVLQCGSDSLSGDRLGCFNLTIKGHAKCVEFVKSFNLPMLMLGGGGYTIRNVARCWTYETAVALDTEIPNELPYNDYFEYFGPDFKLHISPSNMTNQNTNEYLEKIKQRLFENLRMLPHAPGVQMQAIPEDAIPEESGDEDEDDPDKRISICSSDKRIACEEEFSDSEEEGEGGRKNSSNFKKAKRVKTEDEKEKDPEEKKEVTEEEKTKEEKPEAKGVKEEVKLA

T1 sequence (C7C422 31-270 limits assumed): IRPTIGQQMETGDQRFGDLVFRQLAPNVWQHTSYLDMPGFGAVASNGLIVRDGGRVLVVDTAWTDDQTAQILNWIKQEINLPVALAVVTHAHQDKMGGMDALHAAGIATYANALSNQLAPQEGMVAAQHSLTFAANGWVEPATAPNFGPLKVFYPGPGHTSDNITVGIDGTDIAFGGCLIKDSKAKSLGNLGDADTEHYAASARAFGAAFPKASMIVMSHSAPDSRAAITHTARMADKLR
Description for HDAC1: 1.7.1 HDAC1 Assay conditions:
The results of the assay were analysed using HRMS.
HDAC1 was included (-HDAC1).
Description for NDM-1 in E. coli NDM-1: shaking at 180 rpm for 18 hours. The overnight suspensions were subcultured (1:100) in fresh LB and incubated to yield an OD600 of 0.55-0.60. The were harvested and pelleted at 3500  g for 15 minutes at 4 °C. The pellets were washed with PBS and pelleted again under the same
conditions. The bacteria were then stored as pellets at 4 C until required for the assay and to
be used within 5 hours. To prepare the bacteria fo r the assay, a pellet was resuspended in an
adjusted volume of fresh PBS to achieve an OD600 ≈ 5.0 and then kept at 4 C for 1 hr before
being used. The bacteria were then diluted to OD600 ≈ 2.0 in fresh PBS and used immediately.
inhibitor control, and one row of Bacteria Buffer B (50 µL) which served as a no-bacteria
control (providing five rows in total). Bacteria stock (OD600 ≈ 2.0, 40 µL, final concentration
of bacteria in well = OD600 ≈ 0.8) was added to each well of the first four rows, the plate was
sealed, and the samples then pre-incubated for 60 min under either ‘dark’ or ‘light’ conditions
Under ‘dark’ conditions, the plate was left sealed in a
substrate in well = 100 µM) was conducted manually and then the plate immediately resealed
substrate had been completely consumed. Method conditions are as follows: cycle time = 100

For the compound `[Cl][Ru][Cl].c1ccc(-c2ccccn2)nc1.c1ccc(-c2ccccn2)nc1.c1ccc(-c2ccccn2)nc1` [[Ru(bpy)3]Cl2, tris(2,2’-bipyridyl)ruthenium(II) dichloride], the “Luminescence lifetime of excited state” value in [1] is 510 ns. Also, the “1O2 quantum yield (ΦΔ)” value in data set [2] is listed as 0.87.
For the compound `O=C(Cc1cccs1)N[C@@H]1C(=O)N2C(C(=O)O)=C(/C=C/c3ccc([N+](=O)[O-])cc3[N+](=O)[O-])CS[C@H]12` [nitrocefin], the Km at NDM-1 [3] is 3.1 ± 0.5 µM; on NDM-1 [4], 3.2 µM.
As to “[Ru(2,2'-bipyridine)2(1-(4-(3-aminophenyl)pyridine-2,6-dicarboxylic acid)-imidazo[4,5,f][1,10]phenanthroline)](PF6)2 [Ru1]”, the “Degradation of NDM-1 vs BSA (band intensity)” value at NDM-1 [5] (dark) is “Both proteins were unaffected”; on NDM-1 [5] (light 450 nm, 20 J cm^-2), “only NDM-1 was selectively modified and degraded; also recorded: Selective degradation of NDM-1 over BSA”. The “Modification of NDM-1 (intact mass)” value at NDM-1 [6] (100 equiv, without irradiation) was “no change”; on NDM-1 [6] (one equivalent, light 450 nm, 20 J cm^-2) it was “considerable modification to the protein”. The “K d,app from DSF (ΔT vs concentration)” value at NDM-1 [7] (apparent Kd) came to 7.4 µM. Also, the “Change in melting temperature (ΔT) of NDM-1” value at NDM-1 [7] (compound 4 μM) was “–3.9 °C”; at NDM-1 [7] (compound 16 μM), “–6.8 °C”; on NDM-1 [7] (compound 63 μM), “–13 °C”. The “Effect on melting temperature of NDM-1” value at NDM-1 [7] (in words) was “destabilize the protein in a dose-dependent manner”. The “Fold improvement in potency, light vs dark” value at NDM-1 in E. coli NDM-1 came out at 30 fold. For the same compound, the minimum inhibitory concentration (MIC) was greater than 160 µM with E. coli empty; greater than 160 µM in the data set with E. coli NDM-1 (E. coli NDM-1, dark and light samples equivalent). The “Fold change in Meropenem MIC” value came out at 0 fold in the data set on E. coli NDM-1 (compound 5 μM, dark); 0.66 fold with E. coli NDM-1 (compound 5 μM, light 450 nm, 60 J cm^-2); 0 fold with E. coli NDM-1 (compound 10 μM, dark); 0.66 fold in the data set on E. coli NDM-1 (compound 10 μM, light 450 nm, 60 J cm^-2); 0.66 fold in the data set on E. coli NDM-1 (compound 20 μM, dark); 2.0 fold in the data set on E. coli NDM-1 (compound 20 μM, light 450 nm, 60 J cm^-2). Moreover, the “Fold change in Meropenem MIC” value in the data set on E. coli NDM-1 (compound 40 μM, dark) is 0.66 fold; in the data set with E. coli NDM-1 (compound 40 μM, light 450 nm, 60 J cm^-2) it was 5.3 fold; with E. coli NDM-1 (compound 80 μM, dark), 2.6 fold; in the data set with E. coli NDM-1 (compound 80 μM, light 450 nm, 60 J cm^-2) it was 19 fold; with E. coli NDM-1 (compound 160 μM, dark), 9 fold and 9.3 fold; in the data set on E. coli NDM-1 (compound 160 μM, light 450 nm, 60 J cm^-2), 53 fold. The “Inhibition of HDAC1” value at HDAC1 is listed as “do not inhibit; also recorded: no off-target inhibition”.

In general, Km refers to the substrate concentration at which the rate is half of its maximum. The MIC is the smallest concentration in the dilution series that meets the test's criterion for growth inhibition.
